ChEMBL document CHEMBL1137755, “[35S]GTP gamma S binding studies of amphiphilic drugs-activated Gi proteins: a caveat” (Bioorg Med Chem Lett, 2009)
Calls of active or inactive are those of the source. The rule behind the calls is not given here.

Key:
[1] = molecular target: Guanine nucleotide-binding protein G(i) subunit alpha-1 (Homo sapiens) (UniProt P63096); test: Activation of human Gi protein alpha1 subunit expressed in Escherichia coli assessed as protein bound [35S]GTPgammaS levels by scintillation spectroscopy; assay type: functional
Sequence of Guanine nucleotide-binding protein G(i) subunit alpha-1 (Homo sapiens) (P63096 whole entry): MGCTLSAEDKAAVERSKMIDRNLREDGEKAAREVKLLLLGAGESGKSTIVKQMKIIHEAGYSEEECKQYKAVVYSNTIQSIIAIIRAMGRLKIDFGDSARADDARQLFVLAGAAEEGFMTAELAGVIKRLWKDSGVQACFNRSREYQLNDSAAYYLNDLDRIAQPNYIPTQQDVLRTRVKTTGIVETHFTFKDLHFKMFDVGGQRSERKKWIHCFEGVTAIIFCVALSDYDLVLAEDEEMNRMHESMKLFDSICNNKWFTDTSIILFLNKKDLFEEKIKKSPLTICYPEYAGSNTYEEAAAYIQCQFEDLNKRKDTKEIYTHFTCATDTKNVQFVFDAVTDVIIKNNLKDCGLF

[2] = molecular target: Guanine nucleotide-binding protein G(i) subunit alpha-1 (Homo sapiens) (UniProt P63096); test: Activation of human Gi protein alpha1 subunit expressed in Escherichia coli assessed as protein bound [35S]GTPgammaS levels at 1 uM by scintillation spectroscopy; assay type: functional
[3] = molecular target: Guanine nucleotide-binding protein G(i) subunit alpha-1 (Homo sapiens) (UniProt P63096); test: Activation of human Gi protein alpha1 subunit expressed in Escherichia coli assessed as protein bound [35S]GTPgammaS levels at 10 uM by scintillation spectroscopy relative to basal; assay type: functional
[4] = molecular target: Guanine nucleotide-binding protein G(i) subunit alpha-1 (Homo sapiens) (UniProt P63096); test: Activation of human Gi protein alpha1 subunit expressed in Escherichia coli assessed as protein bound [35S]GTPgammaS levels at 5 uM by scintillation spectroscopy; assay type: functional
[5] = molecular target: Guanine nucleotide-binding protein G(i) subunit alpha-1 (Homo sapiens) (UniProt P63096); test: Activation of human Gi protein alpha1 subunit expressed in Escherichia coli assessed as protein bound [35S]GTPgammaS levels at 50 uM by scintillation spectroscopy; assay type: functional
[6] = molecular target: Guanine nucleotide-binding protein G(i) subunit alpha-1 (Homo sapiens) (UniProt P63096); test: Activation of human Gi protein alpha1 subunit expressed in Escherichia coli assessed as protein bound [35S]GTPgammaS levels at 10 uM by scintillation spectroscopy; assay type: functional
[7] = Critical micelle concentration by drop-shape analysis; assay type: physicochemical
[8] = molecular target: Guanine nucleotide-binding protein G(o) subunit alpha (Homo sapiens) (UniProt P09471); test: Activation of human Go protein alpha subunit expressed in Escherichia coli assessed as protein bound [35S]GTPgammaS levels at 100 uM by scintillation spectroscopy; assay type: functional
Sequence of Guanine nucleotide-binding protein G(o) subunit alpha (Homo sapiens) (P09471 2-354 limits assumed): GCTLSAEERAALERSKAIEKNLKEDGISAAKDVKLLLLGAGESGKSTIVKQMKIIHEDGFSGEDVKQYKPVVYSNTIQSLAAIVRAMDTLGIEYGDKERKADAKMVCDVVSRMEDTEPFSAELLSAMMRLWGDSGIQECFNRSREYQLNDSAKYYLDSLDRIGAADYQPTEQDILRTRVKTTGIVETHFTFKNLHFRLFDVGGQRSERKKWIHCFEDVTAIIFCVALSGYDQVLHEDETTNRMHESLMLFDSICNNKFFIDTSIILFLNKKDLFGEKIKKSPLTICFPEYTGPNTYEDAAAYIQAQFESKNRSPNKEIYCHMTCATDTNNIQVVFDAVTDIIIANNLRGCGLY

[9] = molecular target: Guanine nucleotide-binding protein G(i) subunit alpha-1 (Homo sapiens) (UniProt P63096); test: Activation of human Gi protein alpha1 subunit expressed in Escherichia coli assessed as protein bound [35S]GTPgammaS levels at 100 uM by scintillation spectroscopy; assay type: functional
[10] = molecular target: Guanine nucleotide-binding protein G(o) subunit alpha (Homo sapiens) (UniProt P09471); test: Activation of human Go protein alpha subunit expressed in Escherichia coli assessed as protein bound [35S]GTPgammaS levels at 50 uM by scintillation spectroscopy; assay type: functional
[11] = molecular target: Guanine nucleotide-binding protein G(o) subunit alpha (Homo sapiens) (UniProt P09471); test: Activation of human Go protein alpha subunit expressed in Escherichia coli assessed as protein bound [35S]GTPgammaS levels at 10 uM by scintillation spectroscopy; assay type: functional
[12] = molecular target: Guanine nucleotide-binding protein G(o) subunit alpha (Homo sapiens) (UniProt P09471); test: Activation of human Go protein alpha subunit expressed in Escherichia coli assessed as protein bound [35S]GTPgammaS levels at 5 uM by scintillation spectroscopy; assay type: functional
[13] = molecular target: Guanine nucleotide-binding protein G(o) subunit alpha (Homo sapiens) (UniProt P09471); test: Activation of human Go protein alpha subunit expressed in Escherichia coli assessed as protein bound [35S]GTPgammaS levels at 1 uM by scintillation spectroscopy; assay type: functional
[14] = molecular target: Guanine nucleotide-binding protein G(o) subunit alpha (Homo sapiens) (UniProt P09471); test: Activation of human Go protein alpha subunit expressed in Escherichia coli assessed as protein bound [35S]GTPgammaS levels at 10 uM by scintillation spectroscopy relative to basal; assay type: functional

In the case of `c1ccc(CCCCN2CCC(C3CCNCC3)CC2)cc1`, the Activity [1] is reported as “inactive”.

For `CCCCCCCCCCCCCCCNC1CCN(CCNC(=O)[C@@H](N)CCCCN)CC1`, the Activity [1] was “Active”.

In the case of `CCCCCCCNN1CCNCC1`, the Activity [1] is reported as “inactive”.

Compound `CCCCCCCCCCCCCCCN1CCC(NC(=O)[C@@H](N)CCCCN)CC1` has an Activity [2] of 23.7 fmol, an Activity [3] of 1660% and an Activity [4] of 103 fmol. For the same compound, the Activity [5] was 185 fmol and the Activity [6] was 157 fmol.

With `CCCCCCCCCCCCCCCNC1CCN(CCN)CC1` the Activity [1] was “Active” and the CMC [7] was 1 ×10⁻⁴ M.

With `CCCCCCCCCCCCCCCN1CCC(C2CCN(C(=O)[C@@H](N)CCCCN)CC2)CC1` the Activity [1] was “Active”.

Compound `CCCCCCCCCCCCCCCNCC1CCN(CCNC=O)CC1` has an Activity [2] of 8.9 fmol, an Activity [3] of 1170% and an Activity [4] of 69.1 fmol. The Activity [5] was 980 fmol and the Activity [6] was 113 fmol.

With `CCOCCOCCOCCOCCOCCN1CCC(C2CCNCC2)CC1` the Activity [1] was “inactive”.

For `CCCCCCCCCNN1CCNCC1`, the Activity [1] was “inactive”.

With `CCCCCCCCCCCCCCCNC1CCN(C(=O)[C@@H](N)CCCCN)CC1` the Activity [1] was “Active”.

`CCCCCCCCCCCCCCCN1CCC(C2CCN(CCNC(=O)[C@@H](N)CCCCN)CC2)CC1` showed an Activity [2] of 19.9 fmol, an Activity [3] of 2990% and an Activity [4] of 33.3 fmol. For the same compound, the Activity [5] was 781 fmol, the Activity [6] was 275 fmol and the CMC [7] was 1.41 ×10⁻⁴ M.

For `CCCCCCCCCCCCCCCNC1CCNCC1`, the Activity [8] was 1420 fmol, the Activity [2] was 15.4 fmol and the Activity [3] was 693%. The Activity [4] was 49.5 fmol, the Activity [5] was 196 fmol and the Activity [6] was 70.6 fmol. For the same compound, the Activity [9] was 195 fmol, the Activity [10] was 1400 fmol and the Activity [11] was 636 fmol. The Activity [12] was 363 fmol, the Activity [13] was 102 fmol and the Activity [14] was 668%. For the same compound, the CMC [7] was 1.44 ×10⁻⁴ M.

With `CCOCCOCCOCCOCCNC1CCNCC1` the Activity [1] was “inactive”.

With `CCOCCOCCOCCNC1CCNCC1` the Activity [1] was “inactive”.

For `CCCCCCCCCNC1CCNCC1`, the Activity [1] was “inactive”.

For `CCCCCCCCCCCCCCCN1CCC(C2CCN(CCN)CC2)CC1`, the Activity [2] was 11.6 fmol, the Activity [3] was 2550% and the Activity [4] was 78.7 fmol. For the same compound, the Activity [5] was 2300 fmol and the Activity [6] was 234 fmol.

In the case of `c1ccc(CCCCNC2CCNCC2)cc1`, the Activity [1] is reported as “inactive”.

With `CCCCCCCCCCCCCCC(=O)N1CCC(C2CCN(C(=O)[C@@H](N)CCCCN)CC2)CC1` the Activity [1] was “Active”.

With `CCCCCN1CCC(C2CCNCC2)CC1` the Activity [1] was “inactive”.

For `CCOCCOCCOCCNCC1CCNCC1`, the Activity [1] was “inactive”.

In the case of `CCCCCCCCCN1CCC(C2CCNCC2)CC1`, the Activity [1] is reported as “inactive”.

In the case of `c1ccc(CCCCNN2CCNCC2)cc1`, the Activity [1] is reported as “inactive”.

With `CCCCCNN1CCNCC1` the Activity [1] was “inactive”.

For `CCOCCOCCOCCNN1CCNCC1`, the Activity [1] was “inactive”.

For `CCCCCCCN1CCC(C2CCNCC2)CC1`, the Activity [1] was “inactive”.

With `CCOCCOCCOCCOCCN1CCC(C2CCNCC2)CC1` the Activity [1] was “inactive”.

`CCCCCCCCCCCCCCC(=O)N1CCC(C2CCN(CCN)CC2)CC1` gave an Activity [2] of 30.3 fmol, an Activity [3] of 877% and an Activity [4] of 76.2 fmol. It also gave an Activity [5] of 103 fmol and an Activity [6] of 87 fmol.

For `CCOCCOCCOCCOCCOCCNC1CCNCC1`, the Activity [1] was “inactive”.

In the case of `c1ccc(CCCCNCC2CCNCC2)cc1`, the Activity [1] is reported as “inactive”.

For `CCCCCNCC1CCNCC1`, the Activity [1] was “inactive”.

With `CCOCCOCCOCCN1CCC(C2CCNCC2)CC1` the Activity [1] was “inactive”.

In the case of `CCCCCCCNC1CCNCC1`, the Activity [1] is reported as “inactive”.

In the case of `CCCCCNC1CCNCC1`, the Activity [1] is reported as “inactive”.
